The structures appear in SMILES notation.

For assay [1], the target named is T1, CD73 (Homo sapiens (Human), UniProt P21589). The assay is classed as biochemical. The settings on record: 1 mM NaH2PO4 in enzyme buffer, CD73 0.3 nM, AMP 15 uM.
Assay [2] has as its target T1, CD73. Put plainly: MDA-MB-231 Cell Based CD73 Activity Assay (DMEM). The settings on record: MDA-MB-231-GFP cells, DMEM medium with 10% human plasma, 200 uM AMP.

T1 sequence (P21589 27-574): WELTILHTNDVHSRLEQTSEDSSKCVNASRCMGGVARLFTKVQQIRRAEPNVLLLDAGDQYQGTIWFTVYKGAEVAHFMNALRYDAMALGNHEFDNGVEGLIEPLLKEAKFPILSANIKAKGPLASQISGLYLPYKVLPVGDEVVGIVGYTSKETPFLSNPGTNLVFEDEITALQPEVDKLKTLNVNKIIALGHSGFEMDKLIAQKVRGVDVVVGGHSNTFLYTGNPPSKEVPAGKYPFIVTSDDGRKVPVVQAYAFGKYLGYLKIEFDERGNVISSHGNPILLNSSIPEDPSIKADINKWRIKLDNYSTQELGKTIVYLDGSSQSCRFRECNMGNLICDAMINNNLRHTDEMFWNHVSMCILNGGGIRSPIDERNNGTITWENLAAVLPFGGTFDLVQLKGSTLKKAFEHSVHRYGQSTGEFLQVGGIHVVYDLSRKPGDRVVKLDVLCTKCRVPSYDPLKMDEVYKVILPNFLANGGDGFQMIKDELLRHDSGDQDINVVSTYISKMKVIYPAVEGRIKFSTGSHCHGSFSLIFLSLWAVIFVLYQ

Regarding `O=c1[nH]cc(-c2cc([C@H]3C[C@@H]3c3ccc4c(cnn4CC(F)(F)F)c3)c3ncnn3n2)c(=O)[nH]1` [Example 430, 5-(8-((1S,2S)-2-(1-(2,2,2-trifluoroethyl)-1H-indazol-5-yl)cyclopropyl)-[1,2,4]triazolo[1,5-b]pyridazin-6-yl)pyrimidine-2,4(1H,3H)-dione], at CD73 [1], the IC50 was 0.18 nM. For the same compound, the half-maximal effective concentration (EC50) on CD73 [2] amounted to 0.71 nM.

`O=c1[nH]cc(-c2cc([C@H]3C[C@@H]3c3ccc4cnn(CC(F)(F)F)c4c3)c3ncnn3n2)c(=O)[nH]1` [Example 431, 5-(8-((1S,2S)-2-(1-(2,2,2-trifluoroethyl)-1H-indazol-6-yl)cyclopropyl)-[1,2,4]triazolo[1,5-b]pyridazin-6-yl)pyrimidine-2,4(1H,3H)-dione] displayed an IC50 on CD73 [1] of 0.15 nM. This compound registered an EC50 on CD73 [2] of 0.13 nM.

On to `O=c1[nH]cc(-c2cc(N3CC(F)(C(F)(F)F)C3)c3ncnn3n2)c(=O)[nH]1` [Example 433, 5-(8-(3-fluoro-3-(trifluoromethyl)azetidin-1-yl)-[1,2,4]triazolo[1,5-b]pyridazin-6-yl)pyrimidine-2,4(1H,3H)-dione], for which, at CD73 [1], the IC50 was 9.71 nM. Moreover, the midpoint of the response on CD73 [2], the EC50, lay at 44.6 nM.

As to `O=c1[nH]cc(-c2cc(N3CC(Oc4ccc(C(F)(F)F)cn4)(C(F)(F)F)C3)c3nccn3n2)c(=O)[nH]1` [Example 434, 5-(8-(3-(trifluoromethyl)-3-((5-(trifluoromethyl)pyridin-2-yl)oxy)azetidin-1-yl)imidazo[1,2-b]pyridazin-6-yl)pyrimidine-2,4(1H,3H)-dione], it took 2.78 nM to reach half-maximal inhibition against CD73 [1] (IC50). For the same compound, the EC50 at CD73 [2] amounted to 14.4 nM.

On CD73 [1], `O=c1[nH]cc(-c2cc(N3CC(F)(COc4ccc(C(F)(F)F)cn4)C3)c3nccn3n2)c(=O)[nH]1` [Example 435, 5-(8-(3-fluoro-3-(((5-(trifluoromethyl)pyridin-2-yl)oxy)methyl)azetidin-1-yl)imidazo[1,2-b]pyridazin-6-yl)pyrimidine-2,4(1H,3H)-dione] gave an IC50 of 6 nM. This compound also had a concentration giving a half-maximal response (EC50) on CD73 [2] of 66 nM.

`O=C(NCC(F)(F)F)OCC1(F)CN(c2cc(-c3c[nH]c(=O)[nH]c3=O)nn3ccnc23)C1` [Example 437, (1-(6-(2,4-dioxo-1,2,3,4-tetrahydropyrimidin-5-yl)imidazo[1,2-b]pyridazin-8-yl)-3-fluoroazetidin-3-yl)methyl (2,2,2-trifluoroethyl)carbamate]: the half-maximal inhibitory concentration (IC50) against CD73 [1] is 12.8 nM. A half-maximal response at CD73 [2] (EC50) required 43.6 nM.

On to `CC(C)NC(=O)OCC(F)(F)COc1cc(-c2c[nH]c(=O)[nH]c2=O)nn2ncnc12` [Example 438, 3-((6-(2,4-dioxo-1,2,3,4-tetrahydropyrimidin-5-yl)-[1,2,4]triazolo[1,5-b]pyridazin-8-yl)oxy)-2,2-difluoropropyl isopropylcarbamate], for which, on CD73 [1], the half-inhibitory concentration (IC50) turned out to be 0.14 nM. Also, the EC50 at CD73 [2] came to 0.1 nM.

Consider `O=c1[nH]cc(-c2cc([C@H]3C[C@@H]3c3ccc(Cl)cn3)c3ncnn3n2)c(=O)[nH]1` [Example 439, 5-(8-((1S,2S)-2-(5-chloropyridin-2-yl)cyclopropyl)-[1,2,4]triazolo[1,5-b]pyridazin-6-yl)pyrimidine-2,4(1H,3H)-dione], for which 0.77 nM corresponded to half-maximal inhibition against CD73 [1] (IC50). In addition, a half-maximal effect at CD73 [2] (EC50) was put at 2.63 nM.

As for `CC1(C)CN(c2cc(-c3c[nH]c(=O)[nH]c3=O)nn3c(F)c(C4CC4)nc23)CC1(F)F` [Example 440, 5-(2-cyclopropyl-8-(3,3-difluoro-4,4-dimethylpyrrolidin-1-yl)-3-fluoroimidazo[1,2-b]pyridazin-6-yl)pyrimidine-2,4(1H,3H)-dione], on CD73 [1], the IC50 worked out at 38.2 nM. The compound further returned a half-maximal effective concentration (EC50) at CD73 [2] of 140 nM.

`CC1(C)CN(c2cc(-c3c[nH]c(=O)[nH]c3=O)nn3cc(C4(C(F)(F)F)CC4)nc23)CC1(F)F` [Example 441, 5-(8-(3,3-difluoro-4,4-dimethylpyrrolidin-1-yl)-2-(1-(trifluoromethyl)cyclopropyl)imidazo[1,2-b]pyridazin-6-yl)pyrimidine-2,4(1H,3H)-dione] yielded an IC50 on CD73 [1] of 46.3 nM. Moreover, the response on CD73 [2] was half-maximal at 239 nM (EC50).

`O=c1[nH]cc(-c2cc(N3CC4CCCC43)c3nccn3n2)c(=O)[nH]1` (stereo not drawn) [Example 442, 5-(8-(6-azabicyclo[3.2.0]heptan-6-yl)imidazo[1,2-b]pyridazin-6-yl)pyrimidine-2,4(1H,3H)-dione] yielded an IC50 against CD73 [1] of 6.46 nM. The EC50 on CD73 [2] was 19.6 nM.

With `O=c1[nH]cc(-c2cc(N3CC(CC(F)F)C3)c3nccn3n2)c(=O)[nH]1` [Example 443, 5-(8-(3-(2,2-difluoroethyl)azetidin-1-yl)imidazo[1,2-b]pyridazin-6-yl)pyrimidine-2,4(1H,3H)-dione], the IC50 against CD73 [1] was 157 nM. For the same compound, at CD73 [2], the EC50 came to 188 nM.

For `CC1(CC(F)F)CN(c2cc(-c3c[nH]c(=O)[nH]c3=O)nn3ccnc23)C1` [Example 444, 5-(8-(3-(2,2-difluoroethyl)-3-methylazetidin-1-yl)imidazo[1,2-b]pyridazin-6-yl)pyrimidine-2,4(1H,3H)-dione], the half-inhibitory concentration (IC50) on CD73 [1] is 71 nM. The concentration giving a half-maximal response (EC50) at CD73 [2] came out at 356 nM.

`CC1(CC(F)(F)F)CN(c2cc(-c3c[nH]c(=O)[nH]c3=O)nn3ccnc23)C1` [Example 445, 5-(8-(3-methyl-3-(2,2,2-trifluoroethyl)azetidin-1-yl)imidazo[1,2-b]pyridazin-6-yl)pyrimidine-2,4(1H,3H)-dione] yielded an IC50 on CD73 [1] of 148 nM. Also, the 50% effective concentration (EC50) at CD73 [2] was 256 nM.

As to `O=c1[nH]cc(-c2cc(N3CC(C45CC(C4)C5)C3)c3nccn3n2)c(=O)[nH]1` [Example 446, 5-(8-(3-(bicyclo[1.1.1]pentan-1-yl)azetidin-1-yl)imidazo[1,2-b]pyridazin-6-yl)pyrimidine-2,4(1H,3H)-dione], at CD73 [1], it took 91 nM to reach half-maximal inhibition (IC50). For the same compound, the half-maximal effective concentration (EC50) on CD73 [2] stood at 1100 nM.

For the compound `O=c1[nH]cc(-c2cc(N3CC(OCC(F)(F)F)C3)c3nccn3n2)c(=O)[nH]1` [Example 447, 5-(8-(3-(2,2,2-trifluoroethoxy)azetidin-1-yl)imidazo[1,2-b]pyridazin-6-yl)pyrimidine-2,4(1H,3H)-dione], at CD73 [1], the IC50 was > 250 nM. At CD73 [2], the EC50 is 718 nM.

Turning to `O=c1[nH]cc(-c2cc(N3CC4(CC(C(F)F)C4)C3)c3nccn3n2)c(=O)[nH]1` [Example 448, 5-(8-(6-(difluoromethyl)-2-azaspiro[3.3]heptan-2-yl)imidazo[1,2-b]pyridazin-6-yl)pyrimidine-2,4(1H,3H)-dione], on CD73 [1], half-maximal inhibition (IC50) required 194 nM. The same compound gave an EC50 at CD73 [2] of 1360 nM.

The compound `O=c1[nH]cc(-c2cc(N3CC4(C3)CC(F)(F)CO4)c3nccn3n2)c(=O)[nH]1` [Example 449, 5-(8-(7,7-difluoro-5-oxa-2-azaspiro[3.4]octan-2-yl)imidazo[1,2-b]pyridazin-6-yl)pyrimidine-2,4(1H,3H)-dione] gave a 50% inhibitory concentration (IC50) against CD73 [1] of 132 nM. Besides, the EC50 at CD73 [2] is 473 nM.

`O=c1[nH]cc(-c2cc(N3CC(Cc4ccc(F)cc4F)C3)c3nccn3n2)c(=O)[nH]1` [Example 450, 5-(8-(3-(2,4-difluorobenzyl)azetidin-1-yl)imidazo[1,2-b]pyridazin-6-yl)pyrimidine-2,4(1H,3H)-dione]: the IC50 at CD73 [1] was 230 nM. This compound also registered an EC50 on CD73 [2] of 250 nM.

The compound `O=c1[nH]cc(-c2cc(N3CC4CCCCC43)c3nccn3n2)c(=O)[nH]1` (stereo not drawn) [Example 451, 5-(8-(7-azabicyclo[4.2.0]octan-7-yl)imidazo[1,2-b]pyridazin-6-yl)pyrimidine-2,4(1H,3H)-dione] displayed an IC50 against CD73 [1] of 67.6 nM. This compound also yielded a concentration giving a half-maximal response (EC50) at CD73 [2] of 167 nM.

At CD73 [1], `O=c1[nH]cc(-c2cc(N3CC[C@H](CC(F)F)C3)c3nccn3n2)c(=O)[nH]1` [Example 454, (R)-5-(8-(3-(2,2-difluoroethyl)pyrrolidin-1-yl)imidazo[1,2-b]pyridazin-6-yl)pyrimidine-2,4(1H,3H)-dione] came in with an IC50 of 28.7 nM. This compound also registered an EC50 at CD73 [2] of 50.6 nM.

`O=c1[nH]cc(-c2cc(N3CC(F)(C(F)(F)F)C3)c3ncc(Cl)n3n2)c(=O)[nH]1` [Example 455, 5-(3-chloro-8-(3-fluoro-3-(trifluoromethyl)azetidin-1-yl)imidazo[1,2-b]pyridazin-6-yl)pyrimidine-2,4(1H,3H)-dione] came in with an IC50 against CD73 [1] of 14.9 nM. This compound also displayed a concentration giving a half-maximal response (EC50) at CD73 [2] of 46 nM.

For the compound `O=c1[nH]cc(-c2cc([C@H]3C[C@@H]3c3ccc4cnn(CC(F)(F)F)c4c3)n3nccc3n2)c(=O)[nH]1` [Example 456, 5-(7-((1S,2S)-2-(1-(2,2,2-trifluoroethyl)-1H-indazol-6-yl)cyclopropyl)pyrazolo[1,5-a]pyrimidin-5-yl)pyrimidine-2,4(1H,3H)-dione], the half-inhibitory concentration (IC50) against CD73 [1] was determined as 0.53 nM. Further, on CD73 [2], the EC50 amounted to 0.15 nM.

`CC(C)NC(=O)CCC(F)(F)COc1cc(-c2c[nH]c(=O)[nH]c2=O)nn2ccnc12` [Example 457, 5-((6-(2,4-dioxo-1,2,3,4-tetrahydropyrimidin-5-yl)imidazo[1,2-b]pyridazin-8-yl)oxy)-4,4-difluoro-N-isopropylpentanamide]: the 50% inhibitory concentration (IC50) on CD73 [1] turned out to be 3.52 nM. A half-maximal effect on CD73 [2] (EC50) was put at 9.67 nM.

Consider `O=C(CCC(F)(F)COc1cc(-c2c[nH]c(=O)[nH]c2=O)nn2ccnc12)NCC(F)(F)F` [Example 458, 5-((6-(2,4-dioxo-1,2,3,4-tetrahydropyrimidin-5-yl)imidazo[1,2-b]pyridazin-8-yl)oxy)-4,4-difluoro-N-(2,2,2-trifluoroethyl)pentanamide], for which, on CD73 [1], the half-maximal inhibitory concentration (IC50) turned out to be 4.04 nM. In addition, the midpoint of the response on CD73 [2], the EC50, lay at 13.2 nM.

As for `O=c1[nH]cc(-c2cc([C@H]3C[C@@H]3c3ccc4c(Cl)nn(CC(F)(F)F)c4c3)c3nccn3n2)c(=O)[nH]1` [Example 459, 5-(8-((1S,2S)-2-(3-chloro-1-(2,2,2-trifluoroethyl)-1H-indazol-6-yl)cyclopropyl)imidazo[1,2-b]pyridazin-6-yl)pyrimidine-2,4(1H,3H)-dione], the IC50 at CD73 [1] amounted to 0.75 nM. Also, the half-maximal effective concentration (EC50) at CD73 [2] was 0.38 nM.

On CD73 [1], `O=c1[nH]cc(-c2cc([C@H]3C[C@@H]3c3cc(Cl)c4cnn(CC(F)(F)F)c4c3)c3nccn3n2)c(=O)[nH]1` [Example 460, 5-(8-((1S,2S)-2-(4-chloro-1-(2,2,2-trifluoroethyl)-1H-indazol-6-yl)cyclopropyl)imidazo[1,2-b]pyridazin-6-yl)pyrimidine-2,4(1H,3H)-dione] returned an IC50 of 0.46 nM. The concentration giving a half-maximal response (EC50) on CD73 [2] was determined as 0.38 nM.

The term IC50 denotes the concentration at which inhibition is half-maximal. A lower IC50 goes with greater potency. Broadly, the EC50 is the concentration giving half of the maximal effect. High values mean a need for much substance, low ones an effect from little substance.

For the origin of these results see US20240043427A1 (Gilead Sciences, Inc., priority 2020, published 2024).
